From US20220162558A1, “METHOD FOR INDUCING DIFFERENTIATION OF STEM CELLS INTO CHONDROCYTES BY USING OLIGOPEPTIDES” (POSTERA HEALTH SCIENCE Inc., priority 2019, published 2022)
“Also recorded” adds a separate entry of the source.

Assays:
Type in all cases: cell-based
[1] = system: tonsil-derived mesenchymal stem cells (TMSCs); test: 3D pellet culture: biomarker mRNA expression by real-time RT-PCR; conditions: tripeptide 10 μM, 3D pellet culture in chondrogenic medium
Experimental: (§1) Tonsil-derived mesenchymal stem cells (passage 6) were enzymatically detached by trypsin treatment and counted by a hemocytometer. The tube was centrifuged in 500-g relative centrifugal force (RCF) for 10 minutes and incubated at 37° C. under 5% carbon dioxide for 24 hours. A cell pellet consisting of about 3.0×10^5 cells was formed in a conical polypropylene tube (15 mL). The FBS-containing growth medium was replaced by medium A containing a high-glucose DMEM supplemented with 1.0% (v/v) antibiotic/antimitotic solution, 1.0% (v/v) penicillin/streptomycin solution, 50 μg/mL ascorbate-2-phosphate, 40 μg/mL L-proline, and 1% ITS+Premix (final concentration: 10 μg/mL bovine insulin, 5.5 μg/mL transferrin, 5 μg/mL sodium selenite, 4.7 μg/mL linoleic acid, and 0.5 mg/mL BSA), and 100 nM dexamethasone. Pellets were cultured at 37° C. under 5% carbon dioxide for 21 days under the following three different conditions: 1) medium A only, 2) medium A supplemented with kartogenin, or 3) medium A supplemented with each tripeptides. Each medium was replaced every three days. Triplicate experiments were carried out for each system.
(§2) Total RNA was extracted from the cells by using a TRIZOL™ reagent (Invitrogen, USA). The mRNA concentration was assayed by Nano Drop 2000 spectrophotometer (Thermo Scientific, USA). cDNA was synthesized by ReverTra Ace® qPCR RT kit (Toyobo, Japan). mRNA expression levels were analyzed by real-time RT-PCR (CFX96™, Bio-Rad, USA) using IQ™ SYBR® Green Supermix (Bio-Rad, USA). The expression levels of target genes were calculated as 2^−ΔΔCt by the following calculation equation, and the primer sequences are shown in Table 1 below.
(§3) ΔΔCt=(gene A−GAPDH)−(gene A−GAPDH)control
The medium was supplemented with each tripeptide (10 μM), and tonsil-derived mesenchymal stem cells (size: ˜ mm) were prepared. Chondrogenic medium without tripeptide was used as control experiment. Medium supplemented with kartogenin (target molecule) instead of tripeptide was used for the purpose of comparing chondrogenic differentiation of tonsil-derived mesenchymal stem cells.

[2] = system: tonsil-derived mesenchymal stem cells (TMSCs); test: First-round screening: chondrogenic biomarker mRNA expression by real-time RT-PCR in 2D culture; conditions: tripeptide 10 μM, serum-free medium, after 7 days of incubation
Experimental: The medium was replaced every three days.
as §2, §3

[3] = system: COL II in tonsil-derived mesenchymal stem cells; test: Immunofluorescence assay of COL II protein in sectioned 3D pellets; conditions: 3D pellet culture, compared with control system and WFE- or WLE-treated system
Experimental: as §1, with “Triplicate experiments were carried out for each system.” left out
The stem cell pellets were fixed in formalin aqueous solution (10% v/v) and embedded in paraffin. […] Then, the sectioned cell pellet samples were deparaffinized by xylene, and analyzed by immunofluorescence using antibody, alcian blue staining, and safranin O staining to visualize COL II, sGAG and proteoglycan, respectively. […]

[4] = system: sGAG in tonsil-derived mesenchymal stem cells; test: Alcian blue staining of sectioned 3D pellets; conditions: 3D pellet cultured 21 days, sections of 7 μm
Experimental: as §1

[5] = system: proteoglycan in tonsil-derived mesenchymal stem cells; test: Safranin O staining of sectioned 3D pellets; conditions: 3D pellet cultured 21 days, sections of 7 μm
Experimental: as §1

Compound	chondrogenic mRNAs of COL II, COMP and ACAN, expression [1]	chondrogenic biomarker expression at mRNA level (COL II, SOX 9, COMP) [2]	COL II at protein level, red staining by immunofluorescence [3]	expression levels of COL X and COL I α2 relative to control system ([1]; hypertrophy / osteogenic biomarkers)	sGAG, alcian blue staining [4]	proteoglycan, safranin O staining [5]
tryptophan-phenylalanine-glutamic acid [WFE]	highly expressed	enhanced				
tyrosine-tyrosine-glutamic acid [YYE]	highly expressed	enhanced; also recorded: good promoter comparable to kartogenin	distinguished for their red staining by COL II	less than half of the control system	upregulated	upregulated
O=C(O)c1ccccc1C(=O)Nc1ccc(-c2ccccc2)cc1 [kartogenin, reference compound]			distinguished for their red staining by COL II			
tryptophan-leucine-glutamic acid [WLE]	highly expressed	enhanced				
